Test [1] deals with T1, Adenosine receptor A1 (Homo sapiens, UniProt P30542).
T1 sequence (P30542 whole entry): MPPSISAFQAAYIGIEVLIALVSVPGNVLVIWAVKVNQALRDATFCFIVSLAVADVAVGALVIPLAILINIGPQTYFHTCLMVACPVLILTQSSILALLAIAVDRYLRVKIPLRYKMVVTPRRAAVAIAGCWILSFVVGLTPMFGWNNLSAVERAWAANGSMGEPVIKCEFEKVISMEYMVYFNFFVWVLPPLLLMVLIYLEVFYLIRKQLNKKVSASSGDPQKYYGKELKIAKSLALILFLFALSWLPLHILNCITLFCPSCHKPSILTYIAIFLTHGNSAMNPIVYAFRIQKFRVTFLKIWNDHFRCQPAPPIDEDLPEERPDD
Nature of the test: Displacement of [3H]CCPA from recombinant human adenosine A1 receptor transfected in CHO cell membranes after 3 hrs by microbeta scintillation counting analysis. For orientation: In a radioligand displacement assay an active substance lowers the binding of a labelled ligand.

Test [2] addresses Adenosine receptor A2a (Homo sapiens, UniProt P29274). Description: Displacement of [3H]NECA from recombinant human adenosine A2A receptor transfected in CHO cell membranes after 3 hrs by microbeta scintillation counting analysis.
The target of test [3] is T2, Adenosine receptor A2b (Homo sapiens, UniProt P29275).
T2 sequence (P29275 whole entry): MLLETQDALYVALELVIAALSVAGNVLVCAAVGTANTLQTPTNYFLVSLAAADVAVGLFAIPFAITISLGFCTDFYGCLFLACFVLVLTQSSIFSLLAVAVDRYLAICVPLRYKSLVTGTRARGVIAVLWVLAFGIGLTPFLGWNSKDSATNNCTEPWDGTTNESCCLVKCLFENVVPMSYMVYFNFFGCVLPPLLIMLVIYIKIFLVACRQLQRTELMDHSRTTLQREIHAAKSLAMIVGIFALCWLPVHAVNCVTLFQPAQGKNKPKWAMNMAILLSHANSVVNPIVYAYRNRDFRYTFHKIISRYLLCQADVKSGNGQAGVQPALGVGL
Description: Antagonist activity at recombinant human adenosine A2B receptor expressed in CHO cells assessed as inhibition of NECA-induced adenylyl cyclase activity after 20 mins by [alpha-32P]ATP assay. The class given is functional, cell-based.

For test [4], the target named is T3, Adenosine receptor A3 (Homo sapiens, UniProt P0DMS8).
T3 sequence (P0DMS8 whole entry): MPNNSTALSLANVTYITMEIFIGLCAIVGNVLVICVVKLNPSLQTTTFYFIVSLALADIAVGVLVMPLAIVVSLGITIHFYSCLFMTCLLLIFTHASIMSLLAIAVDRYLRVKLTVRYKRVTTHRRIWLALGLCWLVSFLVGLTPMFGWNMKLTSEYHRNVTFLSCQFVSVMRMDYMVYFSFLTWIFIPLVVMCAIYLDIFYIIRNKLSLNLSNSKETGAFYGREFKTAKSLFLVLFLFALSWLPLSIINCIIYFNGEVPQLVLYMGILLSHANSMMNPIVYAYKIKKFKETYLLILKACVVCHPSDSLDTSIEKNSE
Nature of the test: Displacement of [3H]NECA from recombinant human adenosine A3 receptor transfected in CHO cell membranes after 3 hrs by microbeta scintillation counting analysis.

Test [5] is filed under the species Homo sapiens. Description: Selectivity index, ratio of Ki for recombinant human adenosine A2A receptor to Ki for recombinant human adenosine A1 receptor.
The species entered for test [6] is Homo sapiens. Description: Selectivity index, ratio of Ki for recombinant human adenosine A2B receptor to Ki for recombinant human adenosine A1 receptor.
Test [7] concerns the target Adenosine receptors; A1 & A3 (Homo sapiens) (UniProt P30542+P0DMS8). Nature of the test: Selectivity index, ratio of Ki for recombinant human adenosine A3 receptor to Ki for recombinant human adenosine A1 receptor.

Chain of Adenosine receptor A2a (P29274 whole entry): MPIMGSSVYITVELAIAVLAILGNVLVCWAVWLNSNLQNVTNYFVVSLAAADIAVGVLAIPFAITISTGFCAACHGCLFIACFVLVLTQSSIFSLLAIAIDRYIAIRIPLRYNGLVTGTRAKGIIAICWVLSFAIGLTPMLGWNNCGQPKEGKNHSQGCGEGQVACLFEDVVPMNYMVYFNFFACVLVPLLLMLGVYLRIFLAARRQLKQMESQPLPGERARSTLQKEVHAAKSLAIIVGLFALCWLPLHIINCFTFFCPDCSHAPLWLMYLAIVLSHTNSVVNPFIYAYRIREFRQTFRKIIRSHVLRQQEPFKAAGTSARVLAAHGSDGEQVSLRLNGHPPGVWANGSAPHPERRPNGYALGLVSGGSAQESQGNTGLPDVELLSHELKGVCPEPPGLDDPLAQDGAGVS

One may read the Ki as the equilibrium dissociation constant of an inhibitor or competing ligand from its target. `CCn1c(-c2ccccc2)nc2c(N)ncnc21`: the Ki in test [1] stood at 31 nM; in test [2] it was 212 nM; in test [3], 3020 nM; in test [4], 5780 nM. Moreover, the Ratio Ki in test [5] turned out to be 7; in test [6], 97; in test [7], 186.
With `CCCn1c(-c2ccccc2)nc2c(NC3CCCCC3)ncnc21`, the Ki in test [1] is 27 nM; in test [2], 1060 nM; in test [3], 5310 nM; in test [4], 2360 nM. Further, the Ratio Ki stood at 39 in test [5], 197 in test [6] and 87 in test [7].
Turning to `CCCn1c(-c2ccccc2)nc2c(NC3CCCC3)ncnc21`, the Ki in test [1] amounted to 10 nM; in test [2], 634 nM; in test [3], 3430 nM; in test [4], 749 nM. The figures for the Ratio Ki in test [5], in test [6] and in test [7] were 63, 343 and 75, respectively.
With `Cn1c(-c2ccccc2)nc2c(NC3CCCCC3)ncnc21`, the inhibitory constant (Ki) is 5.7 nM in test [1], 527 nM in test [2], above 30000 nM in test [3] and 2370 nM in test [4]. For the same compound, the results for the Ratio Ki in test [5], in test [6] and in test [7] were 92, above 5260 and 416, respectively.
Turning to `Cc1ccccc1-c1nc2c(NC3CCCC3)ncnc2n1C`, the Ki was 55 nM in test [1], 6980 nM in test [2], above 30000 nM in test [3] and 3000 nM in test [4]. The Ratio Ki in test [5] was 127; in test [6], above 545; in test [7], 55.
On to `CCn1c(-c2ccccc2)nc2c(NC3CCOC3)ncnc21` (configuration not stated), for which the Ki in test [1] is 10 nM; in test [2], 1020 nM; in test [3], 11500 nM; in test [4] it was 1660 nM. In addition, the Ratio Ki in test [5] worked out at 102; in test [6], 1150; in test [7], 166.
In the case of `Cn1c(-c2ccccc2Cl)nc2c(NC3CCCC3)ncnc21`, the inhibition constant (Ki) is 37 nM in test [1], 3080 nM in test [2], above 30000 nM in test [3] and 720 nM in test [4]. The results for the Ratio Ki in test [5], in test [6] and in test [7] were 83, above 811 and 19, respectively.
On to `COc1ccc(-c2nc3c(NC4CCCC4)ncnc3n2C)cc1`, for which the Ki in test [1] is 75 nM; in test [2], 1790 nM; in test [3], above 30000 nM; in test [4], 1850 nM. Moreover, the results for the Ratio Ki in test [5], in test [6] and in test [7] were 24, above 400 and 25, respectively.
`CCCn1c(-c2ccccc2)nc2c(NC3CCOC3)ncnc21` (configuration not stated): the Ki in test [1] amounted to 25 nM; in test [2], 1700 nM; in test [3] it was 9080 nM; in test [4], 2810 nM. For the same compound, the Ratio Ki in test [5] worked out at 68; in test [6] it was 363; in test [7], 112.
On to `Cn1c(-c2ccccc2)nc2c(NC3CCC3)ncnc21`, for which the Ki in test [1] came out at 3.2 nM; in test [2], 303 nM; in test [3], 3730 nM; in test [4] it was 280 nM. Moreover, the Ratio Ki was determined as 95 in test [5], 1170 in test [6] and 88 in test [7].
Turning to `CCCn1c(-c2ccccc2)nc2c(N)ncnc21`, the inhibition constant (Ki) turned out to be 101 nM in test [1], 492 nM in test [2], 1040 nM in test [3] and 9280 nM in test [4]. For the same compound, the Ratio Ki in test [5] was 5; in test [6], 10; in test [7], 92.
As for `CCCn1c(-c2ccccc2)nc2c(NC3CCC3)ncnc21`, the Ki came to 15 nM in test [1], 365 nM in test [2], 774 nM in test [3] and 264 nM in test [4]. Further, the Ratio Ki in test [5] is 24; in test [6] it was 52; in test [7] it was 18.
On to `CCn1c(-c2ccccc2)nc2c(NC3CCCC3)ncnc21`, for which the inhibition constant (Ki) in test [1] came out at 3.9 nM; in test [2] it was 334 nM; in test [3], 5790 nM; in test [4], 354 nM. Also, the Ratio Ki is 86 in test [5], 1480 in test [6] and 91 in test [7].
On to `Cn1c(-c2ccc(Cl)cc2)nc2c(NC3CCCC3)ncnc21`, for which the inhibitory constant (Ki) is 18 nM in test [1], 1820 nM in test [2], above 30000 nM in test [3] and 1210 nM in test [4]. The Ratio Ki is 101 in test [5], above 1670 in test [6] and 67 in test [7].
`CCn1c(-c2ccccc2)nc2c(NC3CCCCC3)ncnc21`: the inhibition constant (Ki) worked out at 10 nM in test [1], 307 nM in test [2], 9020 nM in test [3] and 707 nM in test [4]. Moreover, the Ratio Ki is 31 in test [5], 902 in test [6] and 71 in test [7].
As to `Cn1c(-c2cccnc2)nc2c(NC3CCCC3)ncnc21`, the Ki in test [1] was 242 nM; in test [2], 6330 nM; in test [3] it was above 30000 nM; in test [4], 11000 nM. Moreover, the Ratio Ki in test [5] was 26; in test [6], above 124; in test [7], 45.
As to `Cn1c(-c2ccccc2)nc2c(N)ncnc21`, the Ki in test [1] is 23 nM; in test [2] it was 381 nM; in test [3] it was 7790 nM; in test [4], 14000 nM. Besides, the Ratio Ki in test [5] was 17; in test [6] it was 339; in test [7], 609.
Consider `Cn1c(-c2ccccc2)nc2c(NC3CCOC3)ncnc21` (configuration not stated), for which the Ki was 8 nM in test [1], 1830 nM in test [2], 13300 nM in test [3] and 6260 nM in test [4]. Also, the values for the Ratio Ki in test [5], in test [6] and in test [7] were 229, 1660 and 783, respectively.
Take `Cn1c(-c2cccc(Cl)c2)nc2c(NC3CCCC3)ncnc21`: the inhibition constant (Ki) amounted to 6.5 nM in test [1], 267 nM in test [2], 2530 nM in test [3] and 514 nM in test [4]. Moreover, the Ratio Ki came to 41 in test [5], 389 in test [6] and 79 in test [7].
Take `CCn1c(-c2ccccc2)nc2c(NC3CCC3)ncnc21`: the Ki in test [1] is 6 nM; in test [2], 379 nM; in test [3], 1440 nM; in test [4], 84 nM. In addition, the results for the Ratio Ki in test [5], in test [6] and in test [7] were 63, 240 and 14, respectively.
As to `Cn1c(-c2ccc(C(=O)O)cc2)nc2c(NC3CCCC3)ncnc21`, the Ki is 54000 nM in test [1], above 100000 nM in test [2], above 30000 nM in test [3] and 25700 nM in test [4]. For the same compound, the figures for the Ratio Ki in test [5], in test [6] and in test [7] were above 1.9, above 0.6 and 0.5, respectively.

The record behind these values is ChEMBL document CHEMBL4152191, “New potent and selective A1 adenosine receptor antagonists as potential tools for the treatment of gastrointestinal diseases” (Eur J Med Chem, 2018).
